{"source": "patent US8431166B2", "about": "“Composition comprising the extract of Anemarrhena asphodeloides Bunge or the compounds isolated from the same for preventing and treating lipid metabolism disorder” (EWHA University-Industry Collaboration Foundation, priority 2009, dated 2013)", "test_system": "Pre-adipocytes and 3T3-L1 cell", "assay": "Inhibitory effect on adipocyte differentiation (Oil-red O staining)", "type": "cell-based", "conditions": "3T3-L1, Oil-red O staining; for IC50: day 7, IC50 determined using BioDataFit 1.02, read-out: Inhibitory Activities of Isolated Compound on Adipocyte Differentiation(IC50)", "protocol": "Oil-red O was dissolved in 100% isopropanol, and stirred for about 16 hrs to prepare a 0.3% Oil-red O staining solution. Distilled water was added to the solution at a ratio of 0.3% Oil-red O:distilled water=6:4 (v/v), and mixed with each other. The solution was filtered using 3M paper once, and filtered again using a 0.2 μm syringe filter.\nPre-adipocytes and 3T3-L1 cell (American Tissue Culture. Collection, ATCC) were maintained in DMEM (Dulbecco's Modified Eagle Medium, Gibco-BRL, Grand Island, N.Y., USA) supplemented with 10% bovine calf serum. 4×10^4 of cells were suspended in 0.5 ml and seeded in each well of 24-well plate. The cells were grown to confluence for 48 hrs in the same medium and the medium was replaced with DMEM containing insulin (5 μg/mL), 10 μM rosiglitazone, 1 μM dexamethasone, and 10% fetal bovine serum (FBS) to differentiate adipocytes. […] As a control group, the cells were treated with Resveratrol (Sigma-Aldrich, 3,4′,5-Trihydroxy-trans-stilbene, 5-[(1E)-2-(4-Hydroxyphenyl)ethenyl]-1,3-benzenediol), which is known to inhibit the adipocyte differentiation and prevent diabetes, dissolved in DMSO at the same concentration. The cells were then replaced with 10% FBS/DMEM supplemented with 5 μg/mL insulin after 48 hrs, and also re-treated with each compound. After 48 hrs, the medium was replaced with fresh 10% FBS/DMEM. Day 7 after induction of adipocyte differentiation, the differentiated adipocytes were examined by Oil-red O staining. After removing the culture medium, the cells were gently washed with PBS once, and fixed in 10% formalin at room temperature for 1 hr. […] To wash off the staining solution, the cells were washed with distilled water, and dried (uncapped). After image scanning, the stained cells were treated with 100% isopropanol for 10 min to wash out the staining solution. The absorbance at 500 nm was measured to compare the Oil-red O staining between the compound-treated groups and the control group.", "note": "Like-named read-outs stand apart in the source and are kept apart here."}
{"molecule": "Oc1ccc(/C=C/c2cc(O)cc(O)c2)cc1", "note": "[Resveratrol, 3,4′,5-Trihydroxy-trans-stilbene, reference compound]", "values": [{"measurement": "IC50", "setting": "Mus musculus, 168 h", "value": 31.4, "unit": "µM"}]}
{"molecule": "O=C(C#Cc1ccc(O)cc1)c1ccc(O)cc1", "note": "[Compound 3, 1,3-bis(4-hydroxyphenyl)prop-2-yn-1-one]", "values": [{"measurement": "inhibitory effects on adipocyte differentiation (in words)", "value": "excellent inhibitory effects on adipocyte differentiation even at lower concentration than the control group Resveratrol"}, {"measurement": "IC50", "setting": "Mus musculus, 168 h", "value": 5.3, "unit": "µM"}]}
{"molecule": "Cc1c(O)cc2c(c1O)C(=O)/C(=C/c1ccc(O)cc1)CO2", "note": "[Compound 1, (E)-5,7-Dihydroxy-3-(4′-hydroxybenzylidene)-6-methylchroman-4-one]", "values": [{"measurement": "IC50", "setting": "Mus musculus, 168 h", "value": 336, "unit": "µM"}]}
{"molecule": "Broussonin A [Compound 6]", "values": [{"measurement": "IC50", "value": 74.5, "unit": "µM"}]}
{"molecule": "COc1cc(O)cc2c1C(=O)CC(c1ccc(O)cc1)O2", "note": "(stereo not drawn) [Compound 12, 4′,7-Dihydroxy-5-methoxyflavanone]", "values": [{"measurement": "IC50", "setting": "Mus musculus, 168 h", "value": 260, "unit": "µM"}]}
{"molecule": "O=C(/C=C/c1ccc(O)cc1)c1ccc(O)cc1", "note": "[Compound 14, 4,4′-Dihydroxychalcon]", "values": [{"measurement": "IC50", "setting": "Mus musculus, 168 h", "value": "> 500", "unit": "µM"}]}
{"molecule": "COc1cc(O)cc(O)c1C(=O)CCc1ccc(O)cc1", "note": "[Compound 13, 2′-O-methylphloretin]", "values": [{"measurement": "IC50", "value": "> 500", "unit": "µM"}]}
{"molecule": "C=CC(CC(=O)c1ccc(O)cc1)c1ccc(O)cc1", "note": "(stereo not drawn) [Compound 7, 1,3-bis-di-p-hydroxyphenyl-4-penten-1-one]", "values": [{"measurement": "IC50", "value": 326, "unit": "µM"}]}
{"molecule": "COc1cc(O)ccc1C(=O)/C=C/c1ccc(O)cc1", "note": "[Compound 10, 2′-O-Methylisoliquiritigenin]", "values": [{"measurement": "inhibitory effects on adipocyte differentiation (in words)", "value": "showed inhibitory effects on adipocyte differentiation"}, {"measurement": "IC50", "value": 41.8, "unit": "µM"}]}
{"molecule": "(−)-4′-O-Methylnyasol [Compound 4]", "values": [{"measurement": "inhibitory effects on adipocyte differentiation (in words)", "value": "showed inhibitory effects on adipocyte differentiation"}, {"measurement": "IC50", "value": 45.9, "unit": "µM"}]}
{"molecule": "COc1ccc(CCCc2ccc(O)cc2)c(O)c1", "note": "[Broussonin A]", "values": [{"measurement": "inhibitory effects on adipocyte differentiation (in words)", "value": "showed inhibitory effects on adipocyte differentiation"}]}
{"molecule": "O=C(/C=C/c1ccc(O)cc1)c1ccc(O)cc1O", "note": "[Compound 8, 2′,4′,4-Trihydroxychalcone]", "values": [{"measurement": "inhibitory effects on adipocyte differentiation (in words)", "value": "showed inhibitory effects on adipocyte differentiation"}, {"measurement": "IC50", "setting": "Mus musculus, 168 h", "value": 96.4, "unit": "µM"}]}
{"molecule": "Oc1ccc(CC2COc3cc(O)ccc3C2)cc1", "note": "(stereo not drawn) [Compound 9, 7,4′-Dihydroxyhomoisoflavane]", "values": [{"measurement": "IC50", "value": "> 500", "unit": "µM"}]}
{"molecule": "C=C[C@H](/C=C\\c1ccc(O)cc1)c1ccc(O)cc1", "note": "[Compound 5, (−)-Nyasol]", "values": [{"measurement": "IC50", "setting": "Mus musculus, 168 h", "value": 108, "unit": "µM"}]}
